Experimental data reported in patent US20090093010A1, “Method of Detecting Kidney Dysfunction” (University of Manitoba, priority 2004, published 2009).
“Also recorded” adds a separate entry of the source. Where a SMILES comes first, the peptide text is derived from it. [ ]: non-standard residue; d: D form. The star is where a group is joined. Sta = CC(C)C[C@H](N)[C@@H](O)CC(=O)O; Isovaleryl = CC(C)CC(=O)*

Experiments:
Format in all cases: biochemical, human
[1] = system: protease family responsible for β2-microglobulin cleavage in urine; assay: Determination of the protease family responsible for β2-microglobulin cleavage (urine spiked with intact β2-microglobulin and protease inhibitors, SELDI-TOF-MS); conditions: urine at pH 5, intact β2-microglobulin 10 mg/L, 37° C.; pepstatin 14.5 μM, Complete-Mini (EDTA-free) 0.2 tablets/mL, EDTA 20 mM
Experimental: These samples were then analysed by SELDI-TOF-MS immediately (column 1) and after 6 hours of incubation at 37° C. (column 2).
One mL of a urine sample from a healthy individual (total protein 110 mg/L, creatinine 18.9 mM, pH 5) and 1 mL of a urine sample from a patient with an acute clinical rejection episode showing the protein peak clusters (total protein 230 mg/L, creatinine 11.6 mM, pH 5) were incubated for 16 hours at 37° C. to degrade existing intact and cleaved β2-m. Four hundred μL of each sample were mixed with sodium acetate pH 5 (final concentration 166 mM) to ensure, stable pH and divided into four portions of 100 μL. Pepstatin (final concentration 14.5 μM), Complete-Mini (EDTA-free) (final concentration 0.2 tablets/mL), EDTA (final concentration 20 mM) or no protease inhibitors were added to each portion. Another 100 μL of each urine sample was brought to pH 6 by adding MES pH 6 (final concentration 166 mM). […] SELDI-TOF-MS analysis was performed immediately and after 1, 2, 4, 6 and 24 hours of incubation at 37° C.

[2] = system: serine and/or cysteine proteinases cleaving Y63 and F62 of the β2-microglobulin long chain; assay: Inhibition of cleavage of Y63 and F62 on the long chain (I1-Y63) of cleaved β2-microglobulin; conditions: occurs even at pH 6; EDTA 20 mmol/L
Source text: Further confirmed non-tryptic cleavage sites on the long chain occur at F62 and then at S61, resulting in three major forms of long chains with calculated molecular weights of 7358.19 Da (I1-Y63), 7195.01 Da (I1-F62) and 7047.83 Da (I1-S61) (see FIG. 25B). […] In addition, three cleavage sites on the long chain have been identified by μLC-MS/MS (F22, N24 and C25), however, the resulting fragments were not detectable by SELDI-TOF-MS.

[3] = system: aspartic proteinase(s) performing initial cleavage of intact urinary β2-microglobulin; assay: Inhibition of initial cleavage of intact urinary β2-microglobulin in patient urine at pH 4.5 (SELDI-TOF-MS); conditions: patient urine brought to pH 4.5
Experimental: Pepstatin is a well-established inhibitor of aspartic proteinases. […] Different proteinase-inhibitors were added (Pepstatin and Complete Mini EDTA-free, both from Roche, Switzerland).

Row | Compound | Inhibition of cleavage of intact β2-microglobulin [1] | Inhibition of the cleavage of the two amino acids Y63 and F62 on the long chain [2] | Detectability of the intact form of β2-microglobulin after 6 to 24 hours in urine spiked with proteinase inhibitor [3]
1 | O=C(O)CN(CCN(CC(=O)O)CC(=O)O)CC(=O)O [EDTA] | not | not | 
2 | CC(C)CC(=O)N[C@H](C(=O)N[C@H](C(=O)N[C@@H](CC(C)C)[C@@H](O)CC(=O)N[C@@H](C)C(=O)N[C@@H](CC(C)C)[C@@H](O)CC(=O)O)C(C)C)C(C)C [Pepstatin] (Isovaleryl-VV[Sta]A[Sta]-OH) | could prevent β2-microglobulin cleavages; also recorded: could be inhibited; also recorded: could inhibit β2-microglobulin cleavage | not | still detectable in unchanged intensity; also recorded: can be inhibited
